Assay results from ChEMBL document CHEMBL1821574, “Structure-activity relationships of 4-position diamine quinoline methanols as intermittent preventative treatment (IPT) against Plasmodium falciparum” (J Med Chem, 2011).
≈ marks a conversion by molar mass, not a printed value.

Tests used:
[1] = system: Plasmodium falciparum; assay: Antimalarial activity against chloroquine-resistant and mefloquine-sensitive Plasmodium falciparum W2 assessed as inhibition of [3H]hypoxanthine incorporation by liquid scintillation spectrometry; format: functional
[2] = system: Plasmodium falciparum; assay: Antimalarial activity against chloroquine, mefloquine and pyrimethamine-resistant Plasmodium falciparum TM91C235 assessed as inhibition of [3H]hypoxanthine incorporation by liquid scintillation spectrometry; format: functional
[3] = system: Plasmodium falciparum; assay: Antimalarial activity against chloroquine, mefloquine and pyrimethamine-resistant Plasmodium falciparum TM90C2A assessed as inhibition of [3H]hypoxanthine incorporation by liquid scintillation spectrometry; format: functional
[4] = system: Plasmodium falciparum; assay: Antimalarial activity against chloroquine-sensitive and mefloquine-resistant Plasmodium falciparum D6 assessed as inhibition of [3H]hypoxanthine incorporation by liquid scintillation spectrometry; format: functional
[5] = Apparent permeability from apical to basolateral side of dog MDCK cells at 5 uM after 2 hrs by LC/MS/MS analysis; format: ADME, cell-based, Canis lupus familiaris
[6] = system: Plasmodium falciparum; assay: Antimalarial activity against chloroquine-sensitive and mefloquine-resistant Plasmodium falciparum D6 by SYBR Green I-based fluorescence assay; format: functional
[7] = system: Plasmodium falciparum; assay: Antimalarial activity against chloroquine, mefloquine and pyrimethamine-resistant Plasmodium falciparum TM91C235 by SYBR Green I-based fluorescence assay; format: functional
[8] = system: Plasmodium berghei; assay: Antimalarial activity against Plasmodium berghei infected in mouse assessed as complete cure at 320 mg/kg, po administered as single dose measured on day 31; format: functional
[9] = system: Plasmodium berghei; assay: Antimalarial activity against Plasmodium berghei infected in mouse assessed as complete cure at 160 mg/kg, po administered as single dose measured on day 31; format: functional
[10] = system: Plasmodium berghei; assay: Antimalarial activity against Plasmodium berghei infected in mouse assessed as host survival at 10 mg/kg, po administered as single dose measured on day 31; format: functional; details: 744 h
[11] = system: Plasmodium berghei; assay: Antimalarial activity against Plasmodium berghei infected in mouse assessed as complete cure at 20 mg/kg, po administered as single dose measured on day 31; format: functional
[12] = system: Plasmodium berghei; assay: Antimalarial activity against Plasmodium berghei infected in mouse assessed as host survival at 160 mg/kg, po administered as single dose; format: functional
[13] = system: Plasmodium falciparum; assay: Antimalarial activity against chloroquine-resistant and mefloquine-sensitive Plasmodium falciparum W2; format: functional
[14] = system: Plasmodium berghei; assay: Antimalarial activity against Plasmodium berghei infected in mouse assessed as complete cure at 80 mg/kg, po administered as single dose measured on day 31; format: functional
[15] = system: Plasmodium berghei; assay: Antimalarial activity against Plasmodium berghei infected in mouse assessed as host survival at 320 mg/kg, po administered as single dose measured on day 31; format: functional; details: 744 h
[16] = system: Plasmodium berghei; assay: Antimalarial activity against Plasmodium berghei infected in mouse assessed as complete cure at 10 mg/kg, po administered as single dose measured on day 31; format: functional
[17] = system: Plasmodium berghei; assay: Antimalarial activity against Plasmodium berghei infected in mouse assessed as host survival at 160 mg/kg, po administered as single dose measured on day 31; format: functional; details: 744 h
[18] = system: Plasmodium berghei; assay: Antimalarial activity against Plasmodium berghei infected in mouse assessed as complete cure at 40 mg/kg, po administered as single dose measured on day 31; format: functional
[19] = system: Plasmodium falciparum; assay: Antimalarial activity against chloroquine, mefloquine and pyrimethamine-resistant Plasmodium falciparum TM91C235; format: functional
[20] = system: Plasmodium berghei; assay: Antimalarial activity against Plasmodium berghei infected in mouse assessed as host survival at 5 mg/kg, po administered as single dose measured on day 31; format: functional; details: 744 h
[21] = system: Plasmodium berghei; assay: Antimalarial activity against Plasmodium berghei infected in mouse assessed as host survival at 80 mg/kg, po administered as single dose measured on day 31; format: functional; details: 744 h
[22] = system: Plasmodium berghei; assay: Antimalarial activity against Plasmodium berghei infected in mouse assessed as host survival at 20 mg/kg, po administered as single dose; format: functional
[23] = system: Plasmodium falciparum; assay: Antimalarial activity against mefloquine-resistant and chloroquine-sensitive Plasmodium falciparum D6; format: functional
[24] = system: Plasmodium berghei; assay: Antimalarial activity against Plasmodium berghei infected in mouse assessed as host survival at 40 mg/kg, po administered as single dose measured on day 31; format: functional; details: 744 h
[25] = system: Plasmodium berghei; assay: Antimalarial activity against Plasmodium berghei infected in mouse assessed as host survival at 320 mg/kg, po administered as single dose; format: functional
[26] = system: Plasmodium berghei; assay: Antimalarial activity against Plasmodium berghei infected in mouse assessed as host survival at 20 mg/kg, po administered as single dose measured on day 31; format: functional; details: 744 h
[27] = system: Plasmodium berghei; assay: Antimalarial activity against Plasmodium berghei infected in mouse assessed as host survival at 10 mg/kg, po administered as single dose; format: functional
[28] = system: Plasmodium berghei; assay: Antimalarial activity against Plasmodium berghei infected in mouse assessed as complete cure at 5 mg/kg, po administered as single dose measured on day 31; format: functional
[29] = system: Plasmodium berghei; assay: Antimalarial activity against Plasmodium berghei infected in mouse assessed as host survival at 80 mg/kg, po administered as single dose; format: functional
[30] = system: Plasmodium berghei; assay: Antimalarial activity against Plasmodium berghei infected in mouse assessed as host survival at 5 mg/kg, po administered as single dose; format: functional
[31] = system: Plasmodium falciparum; assay: Antimalarial activity against chloroquine, mefloquine and pyrimethamine-resistant Plasmodium falciparum TM90C2A; format: functional
[32] = system: Plasmodium berghei; assay: Antimalarial activity against Plasmodium berghei infected in mouse assessed as host survival at 40 mg/kg, po administered as single dose; format: functional

## CN(C)CCNCC(O)c1cc(C(F)(F)F)nc2c(C(F)(F)F)cccc12 (stereo not drawn)
[1]
  IC90: > 0.5 µg/mL
[2]
  IC90: > 0.5 µg/mL
[3]
  IC90: > 0.5 µg/mL
[4]
  IC90: > 0.5 µg/mL

## CCCCNCCNCC(O)c1cc(C(F)(F)F)nc2c(C(F)(F)F)cccc12 (stereo not drawn)
[1]
  IC90: 0.069 µg/mL (≈ 0.163 µM)
[5]
  Papp A→B at 2 h, 5 µM: 5.9 ×10⁻⁶ cm/s
[6]
  IC90: 0.128 µg/mL (≈ 0.302 µM)
[2]
  IC90: 0.283 µg/mL (≈ 0.668 µM)
[7]
  IC90: 0.236 µg/mL (≈ 0.557 µM)
[3]
  IC90: 0.319 µg/mL (≈ 0.753 µM)
[4]
  IC90: 0.155 µg/mL (≈ 0.366 µM)

## CNCCNCC(O)c1cc(C(F)(F)F)nc2c(C(F)(F)F)cccc12 (stereo not drawn)
[1]
  IC90: 0.481 µg/mL (≈ 1.26 µM)
[2]
  IC90: > 0.5 µg/mL
[3]
  IC90: > 0.5 µg/mL
[4]
  IC90: > 0.5 µg/mL

## CN(CCNCC(O)c1cc(C(F)(F)F)nc2c(C(F)(F)F)cccc12)C1CCCC1 (stereo not drawn)
[1]
  IC90: 0.011 µg/mL (≈ 0.0245 µM)
[5]
  Papp A→B at 2 h, 5 µM: 17 ×10⁻⁶ cm/s
[6]
  IC90: 0.035 µg/mL (≈ 0.0779 µM)
[2]
  IC90: 0.106 µg/mL (≈ 0.236 µM)
[7]
  IC90: 0.109 µg/mL (≈ 0.243 µM)
[3]
  IC90: 0.112 µg/mL (≈ 0.249 µM)
[4]
  IC90: 0.048 µg/mL (≈ 0.107 µM)

## O[C@H](CNCCNC1CC1)c1cc(C(F)(F)F)nc2c(C(F)(F)F)cccc12
[8]
  Activity: 80%
[9]
  Activity: 0%
[10]
  survival at 10 mg/kg: 0%
[11]
  Activity: 0%
[12]
  MST: 19 days
[13]
  IC90: 0.011 µg/mL (≈ 0.027 µM)
[14]
  Activity: 0%
[15]
  survival at 320 mg/kg: 100%
[16]
  Activity: 0%
[17]
  survival at 160 mg/kg: 0%
[18]
  Activity: 0%
[19]
  IC90: 0.077 µg/mL (≈ 0.189 µM)
[20]
  survival at 5 mg/kg: 0%
[21]
  survival at 80 mg/kg: 0%
[22]
  MST: 6.8 days
[23]
  IC90: 0.027 µg/mL (≈ 0.0663 µM)
[24]
  survival at 40 mg/kg: 0%
[25]
  MST: 30 days
[26]
  survival at 20 mg/kg: 0%
[27]
  MST: 6.6 days
[28]
  Activity: 0%
[29]
  MST: 16 days
[30]
  MST: 6.6 days
[31]
  IC90: 0.073 µg/mL (≈ 0.179 µM)
[32]
  MST: 10 days

## O[C@@H](CNCCNC1CC1)c1cc(C(F)(F)F)nc2c(C(F)(F)F)cccc12
[13]
  IC90: 0.011 µg/mL (≈ 0.027 µM)
[19]
  IC90: 0.103 µg/mL (≈ 0.253 µM)
[23]
  IC90: 0.037 µg/mL (≈ 0.0908 µM)
[31]
  IC90: 0.075 µg/mL (≈ 0.184 µM)

## OC(CNC[C@]12CC[C@H](C1)NC2)c1cc(C(F)(F)F)nc2c(C(F)(F)F)cccc12 (stereo partly drawn)
[1]
  IC90: 0.57 µg/mL (≈ 1.32 µM)
[2]
  IC90: > 0.5 µg/mL
[3]
  IC90: > 0.5 µg/mL
[4]
  IC90: > 0.5 µg/mL

## OC(NC[C@H]1CCCN1)c1cc(C(F)(F)F)nc2c(C(F)(F)F)cccc12 (stereo partly drawn)
[1]
  IC90: 0.008 µg/mL (≈ 0.0203 µM)
[2]
  IC90: 0.074 µg/mL (≈ 0.188 µM)
[3]
  IC90: 0.054 µg/mL (≈ 0.137 µM)
[4]
  IC90: 0.04 µg/mL (≈ 0.102 µM)

## OC(NC[C@]12CC[C@@H](C1)NC2)c1cc(C(F)(F)F)nc2c(C(F)(F)F)cccc12 (stereo partly drawn)
[1]
  IC90: 0.275 µg/mL (≈ 0.656 µM)
[2]
  IC90: 0.26 µg/mL (≈ 0.62 µM)
[4]
  IC90: 0.075 µg/mL (≈ 0.179 µM)

## OC(CNCCNCc1ccccc1)c1cc(C(F)(F)F)nc2c(C(F)(F)F)cccc12 (stereo not drawn)
[1]
  IC90: 0.006 µg/mL (≈ 0.0131 µM)
[5]
  Papp A→B at 2 h, 5 µM: 8.5 ×10⁻⁶ cm/s
[6]
  IC90: 0.029 µg/mL (≈ 0.0634 µM)
[7]
  IC90: 0.04 µg/mL (≈ 0.0874 µM)
[4]
  IC90: 0.025 µg/mL (≈ 0.0547 µM)

## CC1C(NCC(O)c2cc(C(F)(F)F)nc3c(C(F)(F)F)cccc23)CC2CC1C2(C)C (stereo not drawn)
[2]
  IC90: 0.019 µg/mL (≈ 0.0413 µM)
[3]
  IC90: 0.016 µg/mL (≈ 0.0347 µM)
[4]
  IC90: 0.014 µg/mL (≈ 0.0304 µM)

## CCN(CC)CCCC(C)Nc1ccnc2cc(Cl)ccc12 (stereo not drawn) [CHLOROQUINE]
[13]
  IC90: 0.266 µg/mL (≈ 0.832 µM)
[19]
  IC90: 0.089 µg/mL (≈ 0.278 µM)
[23]
  IC90: 0.0051 µg/mL (≈ 0.0159 µM)
[31]
  IC90: 0.139 µg/mL (≈ 0.435 µM)

## OC(c1cc(C(F)(F)F)nc2c(C(F)(F)F)cccc12)C1CCCCN1 (stereo not drawn) [MEFLOQUINE]
[8]
  Activity: 50%
[9]
  Activity: 20%
[10]
  survival at 10 mg/kg: 0%
[11]
  Activity: 10%
[1]
  IC90: 0.0067 µg/mL (≈ 0.0177 µM)
[12]
  MST: 27 days
[13]
  IC90: 0.0067 µg/mL (≈ 0.0177 µM)
[14]
  Activity: 30%
[6]
  IC90: 0.015 µg/mL (≈ 0.0396 µM)
[2]
  IC90: 0.053 µg/mL (≈ 0.14 µM)
[15]
  survival at 320 mg/kg: 60%
[16]
  Activity: 0%
[17]
  survival at 160 mg/kg: 50%
[18]
  Activity: 36%
[19]
  IC90: 0.053 µg/mL (≈ 0.14 µM)
[7]
  IC90: 0.042 µg/mL (≈ 0.111 µM)
[20]
  survival at 5 mg/kg: 20%
[21]
  survival at 80 mg/kg: 70%
[22]
  MST: 22 days
[23]
  IC90: 0.016 µg/mL (≈ 0.0423 µM)
[24]
  survival at 40 mg/kg: 56%
[25]
  MST: 24 days
[26]
  survival at 20 mg/kg: 30%
[27]
  MST: 15 days
[28]
  Activity: 20%
[4]
  IC90: 0.016 µg/mL (≈ 0.0423 µM)
[29]
  MST: 28 days
[30]
  MST: 17 days
[32]
  MST: 26 days
